Values belong to the molecule of their own block, whether it stands above or below them. Activity calls are given as the source filed them. The calls are words filed in the database; no cut-off is given here.
Experiments:
NCI-H2228 = experiment: Antiproliferative activity against human NCI-H2228 cells harboring wild type KRAS assessed as reduction in cell viability incubated for 72 hrs by MTT assay; type: functional, cell-based; conditions: NCI-H2228, 72 h
A549 = experiment: Antiproliferative activity against human A549 cells harboring KRAS G12S mutant assessed as reduction in cell viability incubated for 72 hrs by MTT assay; type: functional, cell-based; conditions: A549, 72 h
NCI-H358 [1] = experiment: Antiproliferative activity against human NCI-H358 cells harboring KRAS G12C mutant assessed as reduction in cell viability incubated for 72 hrs by MTT assay; type: functional, cell-based; conditions: NCI-H358, 72 h
NCI-H23 = experiment: Antiproliferative activity against human NCI-H23 cells harboring KRAS G12C mutant assessed as reduction in cell viability incubated for 72 hrs by MTT assay; type: functional, cell-based; conditions: NCI-H23, 72 h
[2] = molecular target: GTPase KRas (Homo sapiens) (UniProt P01116); experiment: Covalent binding affinity to 6his tagged GDP bound human wildtype KRAS expressed in Escherichia coli BL21 (DE3) cells at 200 uM incubated for 24 hrs by LC-MS/MS analysis
[3] = Selectivity index, ratio of IC50 for human NCI-H2228 cells harboring wild type KRAS to IC50 for human NCI-H358 cells harboring KRAS G12C mutant; type: functional
[4] = Selectivity index, ratio of IC50 for human A549 cells harboring KRAS G12S mutant to IC50 for human NCI-H23 cells harboring KRAS G12C mutant; type: functional
[5] = system: GTPase KRas (Homo sapiens), P01116 [G12C]; experiment: (§1) Inhibition of 6His tagged Mant-GDP loaded human KRAS G12C mutant (1 to 169 residues) expressed in Escherichia coli BL21 (DE3) cells assessed as inhibition of SOS1-mediated nucleotide exchange at 10 uM preincubated with compound for 1 hrs followed by addition of GTP and SOS1 protein and measured every 90 sec for 2 hrs by fluorescence based assay; conditions: time 3.0 hrs
[6] = Selectivity index, ratio of IC50 for human A549 cells harboring KRAS G12S mutant to IC50 for human NCI-H358 cells harboring KRAS G12C mutant; type: functional
[7] = system: GTPase KRas (Homo sapiens), P01116 [G12C]; experiment: Covalent binding affinity to 6His tagged GDP bound human KRAS G12C mutant (1 to 169 residues) expressed in Escherichia coli BL21 (DE3) cells at 200 uM incubated for 24 hrs by LC-MS /MS analysis
[8] = system: GTPase KRas (Homo sapiens), P01116 [G12C]; experiment: as §1, with “[…]” for “SOS1-mediated”, “EDTA” for “SOS1 protein”; conditions: time 3.0 hrs
[9] = Selectivity index, ratio of IC50 for human NCI-H2228 cells harboring wild type KRAS to IC50 for human NCI-H23 cells harboring KRAS G12C mutant; type: functional
NCI-H441 = experiment: Antiproliferative activity against human NCI-H441 cells harboring KRAS G12V mutant assessed as reduction in cell viability incubated for 72 hrs by MTT assay; type: functional, cell-based; conditions: NCI-H441, 72 h
NCI-H358 [10] = experiment: Antitumor activity against human NCI-H358 cells harboring KRAS G12C mutant xenografted in BALB/c mouse assessed as reduction in tumor growth at 10 to 15 mg/kg, ip administered for 21 days by Ki67 staining based analysis; type: functional, organism-based; conditions: dose 10-15 mg/kg, time 21.0 day
NCI-H358 [11] = experiment: Antitumor activity against human NCI-H358 cells harboring KRAS G12C mutant xenografted in BALB/c mouse assessed as tumor growth inhibition at 10 mg/kg, ip administered for 21 days; type: functional, organism-based; conditions: time 21.0 day
NCI-H358 [12] = experiment: Inhibition of KRAS signaling in human NCI-H358 cells harboring KRAS G12C mutant assessed as decrease in AKT phosphorylation level at 0.5 to 8 uM incubated for 6 hrs by Western blot analysis relative to control; type: cell-based; conditions: dose 0.5-8 µM
NCI-H358 [13] = experiment: Inhibition of KRAS signaling in human NCI-H358 cells harboring KRAS G12C mutant assessed as decrease in ERK phosphorylation level at 0.5 to 8 uM incubated for 6 hrs by Western blot analysis relative to control; type: cell-based; conditions: dose 0.5-8 µM
[14] = molecular target: GTPase KRas (Homo sapiens) (UniProt P01116); experiment: Inhibition of KRAS signaling in human NCI-H2228 cells harboring wildtype KRAS at 0.5 to 8 uM incubated for 6 hrs by Western blot analysis; type: cell-based; conditions: dose 0.5-8 µM
[15] = system: GTPase KRas (Homo sapiens), P01116 [G12C]; experiment: In vivo inhibition of KRAS signaling in BALB/C mouse xenografted with human NCI-H358 cells harboring KRAS G12C mutant assessed as decrease in ERK phosphorylation in tumor at 10 to 15 mg/kg, ip administered for 21 days by IHC staining based analysis; type: functional, organism-based; conditions: dose 10-15 mg/kg, time 21.0 day
[16] = Toxicity in BALB/c mouse xenografted with human NCI-H358 cells harboring KRAS G12C mutant assessed as effect on body weight at 10 to 15 mg/kg, ip administered for 21 days; type: organism-based; conditions: in vivo, 504 h, dose 10-15 mg/kg, time 21 day
[17] = Cytotoxicity against human MRC5 cells assessed as reduction in cell viability incubated for 72 hrs by MTT assay; type: toxicity, cell-based
NCI-H358 [18] = experiment: Antitumor activity against human NCI-H358 cells harboring KRAS G12C mutant xenografted in BALB/c mouse assessed as tumor growth inhibition at 15 mg/kg, ip administered for 21 days; type: functional; conditions: NCI-H358, 504 h, time 21 day, read-out: TGI
NCI-H358 [19] = experiment: Antitumor activity against human NCI-H358 cells harboring KRAS G12C mutant xenografted in BALB/c mouse assessed as increase in cleaved caspase-3 level at 10 to 15 mg/kg, ip administered for 21 days by IHC staining analysis; type: functional, organism-based; conditions: dose 10-15 mg/kg, time 21.0 day
[20] = Selectivity index, ratio of IC50 for human MRC5 cells to IC50 for human NCI-H358 cells harboring KRAS G12C mutant
SK-LU-1 = experiment: Antiproliferative activity against human SK-LU-1 cells harboring KRAS G12D mutant assessed as reduction in cell viability incubated for 72 hrs by MTT assay; type: functional, cell-based; conditions: SK-LU-1, 72 h
NCI-H358 [21] = experiment: Induction of apoptosis in human NCI-H358 cells assessed as fold change in cleaved caspase-3 level at 0.5 to 8 uM incubated for 6 hrs by Western blot analysis; type: functional; conditions: dose 0.5-8 µM

IC50 (NCI-H2228): > 100 µM
IC50 (A549): > 100 µM
IC50 (NCI-H358 [1]): > 100 µM
IC50 (NCI-H23): > 100 µM
Structure (SMILES): C=CC(=O)N1CCC(NC(=O)Nc2ccc(Cl)cc2)CC1

IC50 (NCI-H2228): > 100 µM
IC50 (A549): 66.9 µM
IC50 (NCI-H358 [1]): 27.8 µM
IC50 (NCI-H23): 31.1 µM
Structure (SMILES): COc1cccc(F)c1-c1cc(NC(=O)NC2CCN(C(=O)CCl)CC2)ccc1Cl

IC50 (NCI-H2228): > 100 µM
IC50 (A549): > 100 µM
IC50 (NCI-H358 [1]): > 100 µM
IC50 (NCI-H23): > 100 µM
Structure (SMILES): C=CC(=O)N1CC[C@H](NC(=O)Nc2ccc(Cl)cc2)C1

IC50 (NCI-H2228): 34.9 µM
IC50 (A549): > 100 µM
IC50 (NCI-H358 [1]): 37.7 µM
IC50 (NCI-H23): 42.8 µM
Structure (SMILES): O=C(Nc1ccc(Cl)c(-c2ccccc2F)c1)NC1CCN(C(=O)CCl)CC1

IC50 (NCI-H2228): 24.6 µM
IC50 (A549): 20.3 µM
IC50 (NCI-H358 [1]): 10 µM
IC50 (NCI-H23): 11.6 µM
Structure (SMILES): C=CC(=O)N1CC[C@@H](NC(=O)c2cc(=O)c3cc(Cl)c(I)cc3[nH]2)C1

IC50 (NCI-H2228): 45.8 µM
IC50 (A549): > 100 µM
IC50 (NCI-H358 [1]): > 100 µM
IC50 (NCI-H23): > 100 µM
Structure (SMILES): C=CC(=O)N1CCC(NC(=O)Nc2ccc(Cl)c(C(F)(F)F)c2)CC1

IC50 (NCI-H2228): 8.2 µM
IC50 (A549): 10.2 µM
IC50 (NCI-H358 [1]): 5.4 µM
IC50 (NCI-H23): 3.8 µM
Structure (SMILES): O=C(NC1CCN(C(=O)CCl)C1)c1cc(=O)c2cc(Cl)c(I)cc2[nH]1 (stereo not drawn)

IC50 (NCI-H2228): 14.1 µM
IC50 (A549): 17.5 µM
Activity [2]: inactive
IC50 (NCI-H358 [1]): 3.8 µM
inhibition [5]: Active
Activity [7]: Active
inhibition [8]: inactive
IC50 (NCI-H23): 5.1 µM
Structure (SMILES): O=C(Nc1ccc(Cl)cc1)NC1CCN(C(=O)CCl)CC1
Ratio IC50 [3]: 3
Ratio IC50 [4]: 3
Ratio IC50 [6]: 3
Ratio IC50 [9]: 3

IC50 (NCI-H2228): 11.6 µM
IC50 (NCI-H441): 4.4 µM
IC50 (A549): 9.3 µM
Activity [2]: inactive
inhibition [14]: inactive
inhibition [15]: Active
IC50 (NCI-H358 [1]): 0.5 µM
inhibition [5]: Active
Activity [7]: Active
inhibition [8]: inactive
Ratio IC50 [20]: 12
IC50 (SK-LU-1): 4.6 µM
IC50 (NCI-H23): 1.3 µM
Structure (SMILES): O=C(CCl)N1CCN(C(=O)Nc2ccc(Cl)c(-c3ccccc3F)c2)CC1
Activity (NCI-H358 [10]): Active
TGI (NCI-H358 [11]): Active
Ratio IC50 [3]: 7
inhibition (NCI-H358 [12]): 30%
inhibition (NCI-H358 [13]): 40%
Activity [16]: Non-Toxic
IC50 at 72 h [17]: 6.1 µM
Ratio IC50 [4]: 7
inhibition in vivo at 15 mg/kg (NCI-H358 [18]): 50%
Ratio IC50 [6]: 7
Activity (NCI-H358 [19]): Active
fold change (FC) (NCI-H358 [21]): 2
Ratio IC50 [9]: 7

IC50 (NCI-H2228): 7.3 µM
IC50 (A549): 11.3 µM
IC50 (NCI-H358 [1]): 2.4 µM
IC50 (NCI-H23): 1.5 µM
Structure (SMILES): O=C(Nc1ccc(Cl)c(C(F)(F)F)c1)N[C@H]1CCN(C(=O)CCl)C1
Ratio IC50 [3]: 3
Ratio IC50 [4]: 3
Ratio IC50 [6]: 3
Ratio IC50 [9]: 3

IC50 (NCI-H2228): > 100 µM
IC50 (A549): > 100 µM
IC50 (NCI-H358 [1]): 29.7 µM
IC50 (NCI-H23): 34.8 µM
Structure (SMILES): C=CC(=O)NC1CCN(C(=O)c2cc(=O)c3cc(Cl)ccc3[nH]2)CC1

IC50 (NCI-H2228): 31.6 µM
IC50 (A549): 22.8 µM
IC50 (NCI-H358 [1]): 19.2 µM
IC50 (NCI-H23): 35.5 µM
Structure (SMILES): C=CC(=O)NC1CCN(C(=O)c2cc(=O)c3cc(Cl)c(I)cc3[nH]2)CC1

IC50 (NCI-H2228): 4 µM
IC50 (A549): 26.1 µM
IC50 (NCI-H358 [1]): 4.5 µM
IC50 (NCI-H23): 4.6 µM
Structure (SMILES): O=C(Nc1ccc(Cl)c(C(F)(F)F)c1)N[C@@H]1CCN(C(=O)CCl)C1

IC50 (NCI-H2228): 53.2 µM
IC50 (A549): > 100 µM
IC50 (NCI-H358 [1]): > 100 µM
IC50 (NCI-H23): > 100 µM
Structure (SMILES): C=CC(=O)N1CCC(NC(=O)Nc2ccc(Cl)c(Cl)c2)CC1

IC50 (NCI-H2228): 8.6 µM
IC50 (A549): 9.8 µM
IC50 (NCI-H358 [1]): 4.5 µM
IC50 (NCI-H23): 2.7 µM
Structure (SMILES): O=C(CCl)NC1CCN(C(=O)c2cc(=O)c3cc(Cl)c(I)cc3[nH]2)CC1
Ratio IC50 [3]: 2
Ratio IC50 [4]: 2
Ratio IC50 [6]: 2
Ratio IC50 [9]: 2
